Measurements from patent US12576015B2, “Antimicrobial mixture containing 4-(3-ethoxy-4-hydroxyphenyl)butan-2-one and an alcohol compound, and cosmetic composition containing same” (L'OREAL, priority 2018, dated 2026).

Test system: Aspergillus niger ATCC 6275
Assay: Microplate growth inhibition / MIC and FIC index (synergy) test, optical density at 620 nm
Format: cell-based
Details: for microbial growth percentage: 0 A
Description: 1] with: • MIC of A with B: minimum concentration of product A in the combination A+B which makes it possible to obtain an inhibitory effect; • MIC of B with A: minimum concentration of product B in the combination A+B which makes it possible to obtain an inhibitory effect; • MIC of A: minimum inhibitory concentration of product A alone; • MIC of B: minimum inhibitory concentration of product B alone.
When the FIC index value is less than or equal to 1, it is considered that the combination of test compounds has a synergistic effect.
The microbial strain Aspergillus niger ATCC 6275, and a double-concentration Sabouraud broth liquid culture medium supplemented with polyoxyethylenated (20 EO) sorbitan monopalmitate (Tween 40 from Croda) and Phytagel© BioReagent were used (i.e. a mixture of 5 g of Phytagel+0.6 g of Tween 40+60 g of Sabouraud broth).
A 96-well microplate at an incubation temperature of 32.5° C. is used.
The incubation time of the microplate is: • from 24 to 30 h under aerobic conditions for microbial Aspergillus niger ATCC 6275; • from 18 to 24 h under aerobic conditions for Candida albicans ATCC 10231, Pseudomonas aeruginosa ATCC 9027 and Staphylococcus aureus ATCC 6538; Tests
A 10% (weight/volume) stock solution was prepared by mixing 1 g of compound in 9 ml of aqueous 1%0 agar solution. Successive dilutions were made with the 1%0 agar solution.
50 μl of each of the daughter solutions obtained containing compound A or B are added to the microplate wells. 100 μl of Sabouraud liquid nutrient broth inoculated at double concentration with the Aspergillus niger strain and 50 μl of aqueous 1%0 agar solution are also added thereto.
50 μl of each of the daughter solutions obtained containing compound A and 50 μl of each of the daughter solutions obtained containing compound B are added to the microplate wells. 100 μl of Sabouraud liquid nutrient broth inoculated at double concentration with the strain Aspergillus niger are also added thereto.
A positive microbial growth control was also prepared. The positive microbial growth control corresponds to the mixture of 100 μl of aqueous 1%0 agar solution with 100 μl of Sabouraud liquid nutrient broth inoculated at double concentration with the strain Aspergillus niger in the absence of compounds A and B.
An absorbance control was performed in parallel on compounds A and B alone. This control corresponds to 100 μl of double concentration sterile Sabouraud liquid nutrient broth+100 μl of double concentration compound A or B.
In the three cases (absorbance control, growth control and test), the final volume present in each of the microplate wells is 200 μl.
In the two cases (test and control), the inoculum represents the concentration of the Aspergillus niger strain present in the final volume of the wells (200 μl) and is between 2 and 6×10^5 cfu/ml of Aspergillus niger.

**Q.** Which results are given for `CC(=O)c1ccc(O)cc1` [B, 4-hydroxyacetophenone]?
**A.** microbial growth percentage (0.0625 weight % B): 86%; microbial growth percentage (0.125 weight % B): 72%; microbial growth percentage (0.25 weight % B): 79%; microbial growth percentage (0.5 weight % B): 6%; % MIC of B alone (first concentration giving growth <= 25%): 0.5%
